Our source for the pest or weed control, melting point and inhibition of growth values is patent US12043600B2, “Microbiocidal compounds” (SYNGENTA CROP PROTECTION AG, priority 2018, dated 2024).

For data set [1], the system named is Phaeosphaeria nodorum (Septoria nodorum). Description: Phaeosphaeria nodorum (Septoria nodorum)/Wheat/Leaf Disc Preventative (Glume Blotch). The settings on record: Parastagonospora nodorum, foliar, wheat leaf disc preventative, compared to untreated control. Type of data set: in vivo. In outline: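 Wheat cv. Kanzler leaf discs on agar were sprayed with formulated compound diluted in water and inoculated with P. nodorum spores 2 days later. Discs kept at 20 °C, 75% rh, 12 h light/dark; percent disease control versus untreated scored 5–7 days after application.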

The test system of another data set is Phytophthora infestans. Description: whole plant or invertebrate. As to conditions: in Solanum lycopersicum, foliar, read-out: control of Phytophthora infestans. Type of data set: in vivo.
Data set [2] has as its system Magnaporthe grisea (Pyricularia oryzae). Description: whole plant or invertebrate. Type of data set: in vivo. The settings on record: foliar, read-out: control of Magnaporthe grisea.
The next data set relates to Alternaria solani. Description: Alternaria solani/Tomato/Leaf Disc (Early Blight). Type of data set: in vivo. As to conditions: foliar, tomato leaf disc, compared to untreated control. Here is the method:
Tomato leaf disks cv. Baby are placed on agar in multiwell plates (24-well format) and sprayed with the formulated test compound diluted in water. The leaf disks are inoculated with a spore suspension of the fungus 2 days after application. The inoculated leaf disks are incubated at 23° C./21° C. (day/night) and 80% rh (relative humidity) under a light regime of 12/12 h (light/dark) in a climate cabinet and the activity of a compound is assessed as percent disease control compared to untreated when an appropriate level of disease damage appears on untreated check disk leaf disks (5-7 days after application).

The subject of data set [3] is Mycosphaerella arachidis (Cercospora arachidicola). Description: Mycosphaerella arachidis (Cercospora arachidicola)/Liquid Culture (Early Leaf Spot). Type of data set: cell-based. The settings on record: liquid culture, compared to untreated control. In outline: (§1)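 Conidia from cryogenic storage were mixed directly into potato dextrose broth, then added to microtiter wells already holding the test compound dissolved in DMSO. Fungal growth in liquid culture was then assessed.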

In data set [4] the test system is Mycosphaerella graminicola (Septoria tritici). Description: Mycosphaerella graminicola (Septoria tritici)/Liquid Culture (Septoria Blotch). The settings on record: Zymoseptoria tritici; 20 ppm; liquid culture; compared to untreated control. Type of data set: cell-based. A digest of the protocol:
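Conidia from cryogenic storage mixed into potato dextrose broth and added to microtiter wells already holding DMSO solutions of test compound. Activity expressed as percentage disease control.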

The test system of data set [5] is Glomerella lagenarium (Colletotrichum lagenarium). Description: Glomerella lagenarium (Colletotrichum lagenarium)/Liquid Culture (Anthracnose). Type of data set: cell-based. The settings on record: Colletotrichum orbiculare, liquid culture, compared to untreated control.
Data set [6] relates to Monographella nivalis (Microdochium nivale). Description: Monographella nivalis (Microdochium nivale)/Liquid Culture (Foot Rot Cereals). Type of data set: cell-based. As to conditions: liquid culture, compared to untreated control. A digest of the protocol:
as §1

The test system of data set [7] is Puccinia recondita f. sp. tritici. Description: Puccinia recondita f. sp. tritici/Wheat/Leaf Disc Preventative (Brown Rust). The settings on record: foliar, 200 ppm, wheat leaf disc preventative, compared to untreated control, read-out: control of Puccinia recondita f. sp. tritici. Type of data set: in vivo.
In another data set the test system is Plasmopara viticola. Description: whole plant or invertebrate. Type of data set: in vivo. As to conditions: foliar, read-out: control of Plasmopara viticola.
For another data set, the system named is Phakopsora pachyrhizi. Description: Phakopsora pachyrhizi/Soybean/Preventative (Soybean Rust). Type of data set: in vivo. As to conditions: foliar, 288 h, 200 ppm, soybean leaf disc preventative, compared to untreated control, read-out: control of Phakopsora pachyrhizi.
Data set [8] concerns Botryotinia fuckeliana (Botrytis cinerea). Description: Botryotinia fuckeliana (Botrytis cinerea)/Liquid Culture (Gray Mould). Type of data set: cell-based. As to conditions: liquid culture, compared to untreated control. Here is the method: Conidia of the fungus from cryogenic storage are directly mixed into nutrient broth (Vogels broth). After placing a (DMSO) solution of test compound into a microtiter plate (96-well format), the nutrient broth containing the fungal spores is added.

The subject of the next data set is Pyrenophora teres. Description: Pyrenophora teres/Barley/Leaf Disc Preventative (Net Blotch). Type of data set: in vivo. The settings on record: foliar, 200 ppm, barley leaf disc preventative, compared to untreated control, read-out: control of Pyrenophora teres. The text has this:
Barley leaf segments cv. Hasso are placed on agar in a multiwell plate (24-well format) and sprayed with the formulated test compound diluted in water. The leaf segments are inoculated with a spore suspension of the fungus 2 days after application. […] The data are presented as the percentage of disease control of each compound for the biological tests against G. lagenarium (Example B3), P. recondita preventative (Example B13), P. teres (Example B15) and M. graminicola (Example B19) as described above. The testing rates of each biological test is specifically described in table C1 below.

Data set [9] concerns Blumeria graminis f. sp. tritici (Erysiphe graminis f. sp. tritici). Description: Blumeria graminis f. sp. tritici/Wheat/Leaf Disc Preventative (Powdery Mildew on Wheat). As to conditions: foliar, wheat leaf disc preventative, compared to untreated control. Type of data set: in vivo. A digest of the protocol: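 Wheat cv. Kanzler leaf segments on agar sprayed with formulated compound, inoculated with powdery mildew 1 day later and held at 20° C, 60% rh (24 h dark, then 12 h light/12 h dark). Percent disease control versus untreated scored 6-8 days after application.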

Data set [10] deals with Puccinia recondita f. sp. tritici. Description: Puccinia recondita f. sp. tritici/Wheat/Leaf Disc Curative (Brown Rust). Type of data set: in vivo. The settings on record: foliar, wheat leaf disc curative, compared to untreated control. A digest of the protocol:
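Curative leaf-disc test on wheat cv. Kanzler segments on agar, spore-inoculated and kept dark at 19° C, 75% rh; formulated compound in water applied 1 day after inoculation. Incubated at 19° C, 75% rh, 12 h light/12 h dark; percent disease control versus untreated scored 6-8 days after application.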

`CO/C=C(\Oc1cc(-n2cc(C)c(C3CCCCC3)n2)ccc1C)C(=O)OC` [Compound E-113, methyl (Z)-2-[5-(3-cyclohexyl-4-methyl-pyrazol-1-yl)-2-methyl-phenoxy]-3-methoxy-prop-2-enoate]: the melting point – broadly, the temperature of the solid-liquid transition – was 145 to 148 °C. The molecule also registered a pest or weed control at 200 ppm in data set [1] of at least 80%. Moreover, the pest or weed control at 200 ppm in the data set with Phytophthora infestans was at least 80%. Also, the pest or weed control at 200 ppm in data set [2] is at least 80%. In the data set on Alternaria solani, the pest or weed control at 200 ppm was at least 80%. Further, the inhibition of growth (in general, the share of the control response that was lost under treatment) at 20 ppm in data set [3] is at least 80%. The molecule also came in with an inhibition of growth at 20 ppm in [4] of at least 80%. For the same molecule, the inhibition of growth at 20 ppm in [5] is at least 80%. For the same molecule, the inhibition of growth at 20 ppm in data set [6] was at least 80%. Moreover, the pest or weed control at 200 ppm in data set [7] was at least 80%. Also, the pest or weed control at 200 ppm in the data set with Plasmopara viticola is at least 80%.

Molecule `CO/C=C(\Oc1cc(-n2cc(C(F)(F)F)cn2)ccc1C)C(=O)OC` [Compound E-81, methyl (Z)-3-methoxy-2-[2-methyl-5-[4-(trifluoromethyl)pyrazol-1-yl]phenoxy]prop-2-enoate] returned a melting point of 102 to 105 °C. The same molecule registered a pest or weed control at 200 ppm in [1] of at least 80%. In the data set with Phytophthora infestans, the pest or weed control at 200 ppm is at least 80%. Besides, the pest or weed control at 200 ppm with Phakopsora pachyrhizi was at least 50%. Also, the pest or weed control at 200 ppm in data set [2] is at least 80%. Besides, the inhibition of growth at 20 ppm in data set [3] was at least 80%. In [4], this molecule registered an inhibition of growth at 20 ppm of at least 80%. This molecule also displayed an inhibition of growth at 20 ppm in [8] of at least 80%. The molecule further registered an inhibition of growth at 20 ppm in [5] of at least 80%. In data set [6], this molecule came in with an inhibition of growth at 20 ppm of at least 80%. Moreover, the pest or weed control at 200 ppm with Pyrenophora teres is at least 80%. In addition, in data set [9], the pest or weed control at 200 ppm was at least 80%. In [7], the pest or weed control at 200 ppm is at least 80%. In addition, in the data set with Plasmopara viticola, the pest or weed control at 200 ppm is at least 80%.

Consider `CO/C=C(\Oc1cc(-n2ccc(C(F)(F)F)n2)c(C)cc1C)C(=O)OC` [Compound E-16, methyl (Z)-2-[2,4-dimethyl-5-[3-(trifluoromethyl)pyrazol-1-yl]phenoxy]-3-methoxy-prop-2-enoate], for which the melting point was 96 to 98 °C. For the same molecule, the pest or weed control at 200 ppm in the data set on Alternaria solani is at least 80%. In addition, the inhibition of growth at 20 ppm in data set [3] was at least 80%. Also, in data set [4], the inhibition of growth at 20 ppm is at least 80%. This molecule also came in with a pest or weed control at 200 ppm in data set [10] of at least 80%. The inhibition of growth at 20 ppm in data set [8] was at least 80%. Besides, the inhibition of growth at 20 ppm in data set [5] is at least 80%. This molecule showed an inhibition of growth at 20 ppm in [6] of at least 80%. Further, the pest or weed control at 200 ppm in [9] is at least 80%. In addition, in [7], the pest or weed control at 200 ppm is at least 80%.

On to `CO/C=C(\Oc1cc(-n2ccc(C(F)(F)F)n2)c(Cl)cc1C)C(=O)OC` [Compound E-27, methyl (Z)-2-[4-chloro-2-methyl-5-[3-(trifluoromethyl)pyrazol-1-yl]phenoxy]-3-methoxy-prop-2-enoate], for which the pest or weed control at 200 ppm with Phakopsora pachyrhizi is at least 50%; in data set [2] it was at least 80%; with Alternaria solani, at least 80%; in data set [10] it was at least 80%; in data set [9], at least 80%; in data set [7], at least 80%. Moreover, the pest or weed control at 200 ppm in the data set with Plasmopara viticola was at least 80%. Moreover, the inhibition of growth at 20 ppm in [3], in data set [4], in data set [5] and in data set [6] was at least 80% each time.

Molecule `CO/C=C(\Oc1cc(-n2ccc(C)n2)c(F)cc1C)C(=O)OC` [Compound E-64, methyl (Z)-2-[4-fluoro-2-methyl-5-(3-methylpyrazol-1-yl)phenoxy]-3-methoxy-prop-2-enoate] registered a melting point of 134 to 138 °C. The pest or weed control at 200 ppm in the data set on Phakopsora pachyrhizi is at least 50%. In addition, in data set [2], the pest or weed control at 200 ppm is at least 80%. The same molecule registered a pest or weed control at 200 ppm with Alternaria solani of at least 80%. The inhibition of growth at 20 ppm in [3] was at least 80%. The same molecule yielded an inhibition of growth at 20 ppm in data set [4] of at least 80%. The molecule further returned a pest or weed control at 200 ppm in [10] of at least 80%. In addition, the inhibition of growth at 20 ppm in data set [8] was at least 80%. In data set [5], this molecule yielded an inhibition of growth at 20 ppm of at least 80%. The inhibition of growth at 20 ppm in data set [6] is at least 80%. The same molecule gave a pest or weed control at 200 ppm in data set [9] of at least 80%. Further, in the data set on Plasmopara viticola, the pest or weed control at 200 ppm is at least 80%.

Take `CO/C=C(\Oc1cc(-n2ccc(C3CC3)n2)ccc1Cl)C(=O)OC` [Compound E-99, methyl (Z)-2-[2-chloro-5-(3-cyclopropylpyrazol-1-yl)phenoxy]-3-methoxy-prop-2-enoate]: the pest or weed control at 200 ppm was at least 80% in [1]; at least 80% with Phytophthora infestans; at least 50% in the data set on Phakopsora pachyrhizi; at least 80% in [2]; at least 80% in the data set on Alternaria solani; at least 80% in data set [10]. Further, the pest or weed control at 200 ppm (in data set [9]; in data set [7]; in the data set with Plasmopara viticola) was at least 80% throughout. For the same molecule, the inhibition of growth at 20 ppm in data set [3], in data set [4], in data set [8], in data set [5] and in [6] was at least 80% each time.

For `CO/C=C(\Oc1cc(-n2ccc(Cl)n2)ccc1Br)C(=O)OC` [Compound E-85, methyl (Z)-2-[2-bromo-5-(3-chloropyrazol-1-yl)phenoxy]-3-methoxy-prop-2-enoate], the pest or weed control at 200 ppm was at least 80% in data set [1]; at least 50% in the data set with Phakopsora pachyrhizi; at least 80% in data set [2]; at least 80% in the data set on Alternaria solani; at least 80% in [9]; at least 80% in data set [7]. In addition, in the data set on Plasmopara viticola, the pest or weed control at 200 ppm is at least 80%. Besides, the inhibition of growth at 20 ppm in [3], in data set [4], in data set [8], in data set [5] and in data set [6] was at least 80% in each case.

On to `CO/C=C(\Oc1cccc(-n2ccc(C(F)(F)F)n2)c1)C(=O)OC` [Compound E-15, methyl (Z)-3-methoxy-2-[3-[3-(trifluoromethyl)pyrazol-1-yl]phenoxy]prop-2-enoate], for which the pest or weed control at 200 ppm (in the data set with Alternaria solani; in [10]; in [9]; in [7]) was at least 80% each time. Also, the inhibition of growth at 20 ppm in data set [3], in data set [4], in data set [5] and in [6] was at least 80% throughout.

For `CO/C=C(\Oc1cc(-n2ccc(C)n2)c(C)cc1C)C(=O)OC` [Compound E-17, methyl (Z)-2-[2,4-dimethyl-5-(3-methylpyrazol-1-yl)phenoxy]-3-methoxy-prop-2-enoate], the melting point was 123 to 124 °C. This molecule also showed a pest or weed control at 200 ppm with Alternaria solani of at least 80%. The molecule also had an inhibition of growth at 20 ppm in [3] of at least 80%. This molecule displayed an inhibition of growth at 20 ppm in [4] of at least 80%. This molecule also registered a pest or weed control at 200 ppm in data set [10] of at least 80%. The molecule further showed an inhibition of growth at 20 ppm in [6] of at least 80%. In data set [9], this molecule yielded a pest or weed control at 200 ppm of at least 80%. Besides, the pest or weed control at 200 ppm in data set [7] was at least 80%.
